Experimental findings from patent publication US8389768B2, “Methods and compositions comprising novel cationic lipids” (The University of North Carolina at Chapel Hill, priority 2008, dated 2013) are described below.

One data set deals with ERK1/2. The data set is described as follows: ERK1/2 activation in dendritic cells. The class given is cell-based. To be noted: low concentration (1 μM). The text has this: Total ERK1/2 expression remained unperturbed under all conditions.
Data set [1] deals with H460 cells. The data set is described as follows: Flow cytometry with PI staining (apoptosis rate) after free lipid. Type of data set: cell-based, human. To be noted: 10 μM lipid, 3 h. The text has this: There was no statistically significant difference between the cytotoxicities of DSGLA and lipid 1.
On the technique in general: In flow cytometry, cells or beads pass a laser one at a time.

The subject of data set [2] is H460 cells. In words: Chemosensitization study with cisplatin (MTT assay). The class given is cell-based, human. The note with it: 48 h. As to the method: (§1) The cell viability values shown are the averages of triplicate experiments performed on the same day. […] Data=mean, n=3.
H460 cells (1×10^4 per well) were seeded into 12-well plates. Cells were incubated with different lipids at 10 μM and cisplatin (Sigma-Aldrich, St. Louis, Mo.) at different concentrations in serum-containing medium at 37° C. Cell viability was detected by the MTT assay 48 h later.
(§2) The cytotoxic effects of the three novel lipids at various concentrations were assessed in H460 cells after exposure to lipids 1-3 and DOTAP for 48 h using the MTT assay (FIG. 5A). […] To assess the chemo-sensitization ability of these lipids to anticancer drugs such as cisplatin, H460 cells were exposed to each of these agents for 48 h, alone and in combination with cisplatin.

The next data set concerns B16F10 melanoma cells. The data set is described as follows: Intracellular uptake of fluorescently-labeled siRNA in B16F10 cells. The class given is cell-based. To be noted: 4 h, CY3-siRNA, lipid as cationic lipid of LPD-PEG / LPD-PEG-AA, vs DOTAP, AA vs no AA. As for the experimental part: FIG. 9 presents fluorescence photographs of B16F10 cells after a 4 h treatment with 3′ CY3-labeled siRNA against an irrelevant target in LPD-PEG or LPD-PEG-AA nanoparticles formulated with the cationic lipid DSAA, DSGLA, or DOTAP.
We post inserted PEGylated lipids onto a LPD formulation, a nonviral vector developed in our lab as a nanocarrier for siRNA delivery, to increase the serum stability. In addition, we also tethered anisamide, a compound that specifically binds to the sigma receptor, to the distal end of PEG as a targeting ligand. […] Furthermore, the fluorescence signal in the cells treated with LPD-PEG-AA was much stronger than that of cells treated with LPD-PEG.

The test system of data set [3] is B16F10 cells (that stably express luciferase). The data set is described as follows: In vitro luciferase gene silencing. The class given is cell-based. The note with it: 24 h, 37° C., lipid as cationic lipid of the LPD formulation, vs DOTAP and DSGLA, AA vs no AA. The text has this: We examined the gene silencing effect by siRNA in different compositions. […] Furthermore, the silencing effect in the cells treated with LPD-PEG-AA was much stronger than that of cells treated with LPD-PEG.

Data set [4] deals with H460 cells. In words: In vitro transfection (pCMV-Luc luciferase reporter gene delivery). Type of data set: cell-based, human. The note with it: presence of serum, cholesterol co-lipid 1:1, pCMV-Luc, lipid/DNA charge ratios 8:1 to 1:1. For orientation: In a reporter assay the amount or activity of a reporter protein is the signal.
Description: RLU/pgram of protein was plotted against the lipid to DNA (+/−) charge ratios. The transfection efficiencies of the lipids were compared to that of commercially available N-(2,3-dioleoyloxy) propyl)-N,N,N-trimethylammonium chloride (DOTAP) and Lipofectamine™ 2000. The transfection values shown are the average of triplicate experiments performed on the same day.
H460 human large-cell lung carcinoma cells were seeded at a density of 20,000 cells per well in a 96-well plate 18-24 h prior to the transfection. Plasmid DNA (0.3 μg) was complexed with varying amounts of lipids (0.9-7.2 nmol) in plain RPMI medium (total volume of 100 μL) for 20 min. The charge ratios were varied from 1:1 to 8:1 (+/−) over these ranges of the lipids. The complexes were then added to the cells. After 3 h of incubation, 100 μL of RPMI with 20% FBS was added to the cells. The reporter gene activity was estimated after 24 h. The cells were washed twice with phosphate-buffered saline (PBS, 100 μL each) and lysed in 100 μL of lysis buffer (0.1 M Tris-HCl, 2 mM EDTA, 0.5% Triton X100, pH 7.8). Care was taken to ensure complete lysis. The cell lysate was then centrifuged at 14,000 rpm for 5 min. […] The protein concentration within the cellular lysates was quantified with the BSA standards from the Micro BSA™ Protein assay kit as supplied by Pierce Chemical Company (Rockford, Ill.). […]
In data set [5] the test system is H460 cells. In words: Cellular growth inhibition study (MTT assay). As to the method:
as §1
H460 cells (1×10^4 per well) were seeded into 12-well plates. Cells were treated with different lipids at various concentrations in serum-containing medium at 37° C. for 72 h. Cell viability was then detected by an MTT assay. Briefly, 100 μL of the MTT solution (15 mg in 50 mL of PBS) was added to each well, and the cells were incubated for 4 h at 37° C. The medium was removed, and the formazan crystals formed in the cells were dissolved in DMSO. Absorbance at 570 nm was measured in an Ultramark Microplate Imaging System. The data are expressed as the percent of viable cells compared to the untreated control cells.
as §2
(In general: Tetrazolium dyes change colour on reduction, which living cells bring about.)

Where two headings read alike, the source gives them in different places.

`CCCCCCCC/C=C\CCCCCCCC(=O)OCC(C[N+](C)(C)C)OC(=O)CCCCCCC/C=C\CCCCCCCC.[Cl-]` (stereo not drawn) [DOTAP]: the ERK1/2 activation result in the data set on ERK1/2 was “increased ERK1/2 activation”. The “apoptosis rate (flow cytometry with PI staining)” value with H460 cells [1] came out at 4.7±0.5%. In the data set with H460 cells [2] (lipid 10 μM), the “sensitization of cells to cisplatin” value is recorded as “not”.
For `CCCCCCCCCCCCCCCCCC[N+](C)(CCCCCCCCCCCCCCCCCC)CCNC(=O)[C@@H](N)CCCNC(=N)N` [DSAA, N-methyl-N-(2-(arginoylamino)ethyl)-N,N-Dioctadecyl aminium chloride], the “uptake of fluorescently-labeled siRNA (fluorescence photographs)” value in the data set on B16F10 melanoma cells is “much greater”. Also, the “silencing effect of anti-luciferase siRNA” value in data set [3] was “greater”.
Usually IC50 stands for the concentration that inhibits the measured activity by half. With `N.N.[Cl][Pt][Cl]` [cisplatin], the IC50 was around 12 µM with H460 cells [2] (cisplatin alone, read-out: IC50 of cisplatin) and 3.5 µM with H460 cells [2] (with lipids 1-3 (10 μM), read-out: IC50 of cisplatin after treatment with lipids 1-3).
As a reminder, the EC50 is the midpoint of the concentration-response curve. As to “N,N-di-myristoyl-N-methyl-N-2[N′—(N^6-guanidino-L-lysinyl)]aminoethyl ammonium chloride [lipid 1]”, the “transfection efficiency (luciferase activity, RLU per μg protein)” value in the data set on H460 cells [4] is “comparable to that of DOTAP and Lipofectamine 2000”. Further, the “apoptosis rate (flow cytometry with PI staining)” value in the data set with H460 cells [1] worked out at 10.4±3.0%. The EC50 in the data set on H460 cells [5] is around 16 µM.
For “N,N-dimyristoyl-N-methyl-N-2[N′—(N2, N6-di-guanidino-L-lysinyl)]aminoethyl ammonium chloride [lipid 3]”, in the data set on H460 cells [4], the “transfection efficiency (luciferase activity, RLU per μg protein)” value is “comparable to that of DOTAP and Lipofectamine 2000”. The order of cytotoxicity entry in the data set with H460 cells [5] (20 μM concentration of the corresponding lipids) is “lipid 1>lipid 3>lipid 2>DOTAP”.
